Results as given in patent US8653091B2, “Pyrid-2yl fused heterocyclic compounds, and compositions and uses thereof” (Evotec AG, priority 2007, dated 2014).

Key:
P2X3 = P2X3 (Homo sapiens (Human), UniProt P56373); assay: Calcium uptake assay (P2X antagonist assay), P2X3; type: cell-based; details: inhibition of agonist-induced calcium influx
From the text: (§1) Human P2X3 (Accession no. NM_002559), P2X2 (Accession no. NM_170682) and Rat P2X3 (Accession no. NM_031075) and P2X2 (Accession no. NM_053656) are cloned into a mammalian expression vector (e.g., pcDNA5/TO or pcDNA3 Invitrogen). The human P2X2/3 chimera clone is created as described by Neelands et al, and then cloned into an expression vector as above. Receptors are expressed in cells (e.g., HEK293 or 1321N1 (obtained from the ECACC)) via transient transfection using standard lipid mediated transfection, or by creation of stable transfectants for each receptor. For expression of the P2X2/3 heteromeric receptor, the P2X3 expression vector is stably transfected into a cell line already stably expressing P2X2. P2X2/3 heteromer function is isolated using pharmacological methods. Cell lines are maintained in DMEM+5% Glutamax, the appropriate level of selective antibiotic, and 10% heat inactivated FBS.
(§2) Functional activity of compounds at the P2X receptor is determined by measuring their ability to inhibit agonist-induced calcium influx. Compounds are tested for antagonist activity against the P2X2/3 chimera, the P2X3 homomer, or the P2X2/3 heteromer. At the start of each screening day, the agonist EC50 is determined. Compound % inhibition or IC50s are subsequently determined using a pre-determined agonist concentration (EC50-90 depending on cell line) as a stimulus. The agonists used are αβMeATP, ATP, or other ATP analogs. Compounds may be tested at concentrations ranging from 1 μM to 10 μM.
(§3) To test for antagonist activity, cells expressing the appropriate receptor are seeded onto 96 or 384 well plates 18-24 hours prior to assay. On the day of the assay, cells are loaded with calcium-sensitive fluorescent dye (e.g., Fluo-4 no wash reagent-Invitrogen cat#F36206, or the BD™ PBX Calcium Assay Kit—BD cat#640175) in Hank's Buffered Salt Solution (HESS) with up to 10 mM supplemental CaCl2. Plates are incubated at 37° C. and then equilibrated at room temperature. Antagonism of agonist-induced calcium influx is measured using a fluorescent imaging plate reader (e.g. FLIPR^TETRA, Molecular Devices, Sunnyvale, Calif.). The assay comprises two stages: a pre-treatment phase followed by a treatment phase. Compounds may be tested as follows: For the pre-treatment phase, 50 μL of 3× concentration of test compound in HBSS is added to cells containing 100 μL of dye loading media to achieve a final concentration of 1× test compound. For the treatment phase, at a set interval after pre-treatment (1-30 minutes), 50 μL of 1× test compound plus […] solution is added, resulting in a final concentration of 1× compound and 1× agonist. Fluorescence is measured at 0.1-3 second intervals—with an excitation wavelength of 494 nm and an emission wavelength of 515 nm. Responses are measured as (peak fluorescence after agonist addition) minus (baseline fluorescence prior to treatment). Percent inhibition is calculated as follows: […]
(§4) IC50 values are determined by analyzing dose response data in a 4 parameter logistic fit using GraphPad Prizm.

P2X2/3 = P2X2/3 (Homo sapiens (Human), UniProt P56373+Q9UBL9); assay: Calcium uptake assay (P2X antagonist assay), P2X2/3; type: cell-based; details: inhibition of agonist-induced calcium influx
Sequence of P2X2/3 (Q9UBL9 whole entry): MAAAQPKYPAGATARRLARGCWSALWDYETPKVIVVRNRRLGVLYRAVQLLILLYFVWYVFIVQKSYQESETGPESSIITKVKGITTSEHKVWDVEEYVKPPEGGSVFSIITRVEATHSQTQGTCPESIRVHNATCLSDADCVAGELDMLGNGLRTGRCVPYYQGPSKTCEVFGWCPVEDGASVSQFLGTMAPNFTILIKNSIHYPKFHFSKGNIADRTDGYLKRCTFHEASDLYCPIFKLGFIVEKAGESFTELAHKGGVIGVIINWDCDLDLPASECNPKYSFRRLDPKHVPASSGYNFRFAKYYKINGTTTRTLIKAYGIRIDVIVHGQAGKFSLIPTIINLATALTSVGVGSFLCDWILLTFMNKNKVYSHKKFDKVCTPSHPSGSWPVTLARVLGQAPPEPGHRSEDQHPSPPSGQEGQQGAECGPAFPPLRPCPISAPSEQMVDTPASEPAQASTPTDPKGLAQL
Sequence of P2X2/3 (P56373 whole entry): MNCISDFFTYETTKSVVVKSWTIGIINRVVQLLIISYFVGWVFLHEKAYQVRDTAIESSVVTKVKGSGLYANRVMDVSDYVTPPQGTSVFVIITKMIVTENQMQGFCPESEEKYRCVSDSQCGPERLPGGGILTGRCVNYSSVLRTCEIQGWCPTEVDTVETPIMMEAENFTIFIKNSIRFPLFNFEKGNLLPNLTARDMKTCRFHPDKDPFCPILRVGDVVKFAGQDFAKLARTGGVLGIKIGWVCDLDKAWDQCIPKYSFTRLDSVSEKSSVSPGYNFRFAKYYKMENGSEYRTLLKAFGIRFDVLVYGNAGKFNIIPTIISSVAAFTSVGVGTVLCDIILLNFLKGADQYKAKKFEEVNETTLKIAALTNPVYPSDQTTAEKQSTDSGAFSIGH
From the text: as §1, §2, §3, §4

Sequence of P2X3 (P56373 whole entry): as above

| IC50 (P2X3) | IC50 (P2X2/3) | SMILES |
| --- | --- | --- |
| 21 nM | 705 nM | COc1cccc([C@@H](C)Nc2ncnc3c2CN(c2ccc(C)cn2)CC3)c1 [Compound 47, [(R)-1-(3-Methoxy-phenyl)-ethyl]-[6-(5-methyl-pyridin-2-yl)-5,6,7,8-tetrahydro-pyrido[4,3-d]pyrimidin-4-yl]-amine] |
| 301 nM | – | Cc1ccc(N2CCc3ncnc(NC(C)c4cccc(C(F)(F)F)c4)c3C2)nc1 (stereo not shown) [Compound 4, [6-(5-Methyl-pyridin-2-yl)-5,6,7,8-tetrahydro-pyrido[4,3-d]pyrimidin-4-yl]-[1-(3-trifluoromethyl-phenyl)-ethyl]-amine] |
| 272 nM | 3090 nM | Cc1ccc(N2CCc3ncnc(NC(CO)c4cccnc4)c3C2)nc1 (stereo not shown) [Compound 62, 2-[6-(5-Methyl-pyridin-2-yl)-5,6,7,8-tetrahydro-pyrido[4,3-d]pyrimidin-4-ylamino]-2-pyridin-3-yl-ethanol] |
| 119 nM | – | Cc1ccc(N2CCc3ncnc(NC(C)c4cccc(Cl)c4)c3C2)nc1 (stereo not shown) [Compound 16, [1-(3-Chloro-phenyl)-ethyl]-[6-(5-methyl-pyridin-2-yl)-5,6,7,8-tetrahydro-pyrido[4,3-d]pyrimidin-4-yl]-amine] |
| 103 nM | 318 nM | COc1ccc([C@@H](CCO)Nc2ncnc3c2CN(c2ccc(Cl)cn2)CC3)cn1 [Compound 57, (R)-3-[6-(5-Chloro-pyridin-2-yl)-5,6,7,8-tetrahydro-pyrido[4,3-d]pyrimidin-4-ylamino]-3-(6-methoxy-pyridin-3-yl)-propan-1-ol] |
| 125 nM | – | Cc1ccc(N2CCc3ncnc(NC(C)c4ccccc4Cl)c3C2)nc1 (stereo not shown) [Compound 15, [1-(2-Chloro-phenyl)-ethyl]-[6-(5-methyl-pyridin-2-yl)-5,6,7,8-tetrahydro-pyrido[4,3-d]pyrimidin-4-yl]-amine] |
| 19 nM | 1220 nM | Cc1ccc(N2CCc3ncnc(N[C@H](C)c4ccc(F)cc4)c3C2)nc1 [Compound 49, [(R)-1-(4-Fluoro-phenyl)-ethyl]-[6-(5-methyl-pyridin-2-yl)-5,6,7,8-tetrahydro-pyrido[4,3-d]pyrimidin-4-yl]-amine] |
| 52 nM | 803 nM | Cc1ccc(N2CCc3ncnc(NC(C)c4cc(F)cc(F)c4)c3C2)nc1 (stereo not shown) [Compound 17, [1-(3,5-Difluoro-phenyl)-ethyl]-[6-(5-methyl-pyridin-2-yl)-5,6,7,8-tetrahydro-pyrido[4,3-d]pyrimidin-4-yl]-amine] |
| 80 nM | 1060 nM | COc1ccc(C(C)Nc2ncnc3c2CN(c2ccc(C)cn2)CC3)cc1F (stereo not shown) [Compound 21, [1-(3-Fluoro-4-methoxy-phenyl)-ethyl]-[6-(5-methyl-pyridin-2-yl)-5,6,7,8-tetrahydro-pyrido[4,3-d]pyrimidin-4-yl]-amine] |
| 128 nM | 4250 nM | Cc1ccc(N2CCc3ncnc(NC(C)c4ccc(S(C)(=O)=O)cc4)c3C2)nc1 (stereo not shown) [Compound 5, [1-(4-Methanesulfonyl-phenyl)-ethyl]-[6-(5-methyl-pyridin-2-yl)-5,6,7,8-tetrahydro-pyrido[4,3-d]pyrimidin-4-yl]-amine] |
| 245 nM | – | Cc1ccc(N2CCc3ncnc(NC(C)c4ccc(C(F)(F)F)cc4)c3C2)nc1 (stereo not shown) [Compound 26, [6-(5-Methyl-pyridin-2-yl)-5,6,7,8-tetrahydro-pyrido[4,3-d]pyrimidin-4-yl]-[1-(4-trifluoromethyl-phenyl)-ethyl]-amine] |
| 161 nM | – | Cc1ccc(N2CCc3ncnc(N[C@H](CO)c4ccccc4)c3C2)nc1 [Compound 37, (S)-2-[6-(5-Methyl-pyridin-2-yl)-5,6,7,8-tetrahydro-pyrido[4,3-d]pyrimidin-4-ylamino]-2-phenyl-ethanol] |
| 3560 nM | – | FC(F)(F)c1ccc([C@H](Nc2ncnc3c2CN(c2ccc(Cl)cn2)CC3)C2CC2)cn1 [Compound 53, [6-(5-Chloro-pyridin-2-yl)-5,6,7,8-tetrahydro-pyrido[4,3-d]pyrimidin-4-yl]-[(R)-cyclopropyl-(6-trifluoromethyl-pyridin-3-yl)-methyl]-amine] |
| 344 nM | – | C[C@@H](Nc1ncnc2c1CN(c1ccc(Cl)cn1)CC2)c1ccc(Cl)cc1 [Compound 40, [(R)-1-(4-Chloro-phenyl)-ethyl]-[6-(5-chloro-pyridin-2-yl)-5,6,7,8-tetrahydro-pyrido[4,3-d]pyrimidin-4-yl]-amine] |
| – | > 10000 nM | FC(F)(F)c1ccc([C@@H](Nc2ncnc3c2CN(c2ccc(Cl)cn2)CC3)C2CC2)cn1 [Compound 54, [6-(5-Chloro-pyridin-2-yl)-5,6,7,8-tetrahydro-pyrido[4,3-d]pyrimidin-4-yl]-[(S)-cyclopropyl-(6-trifluoromethyl-pyridin-3-yl)-methyl]-amine] |
| 137 nM | – | COc1ccccc1C(C)Nc1ncnc2c1CN(c1ccc(C)cn1)CC2 (stereo not shown) [Compound 14, [1-(2-Methoxy-phenyl)-ethyl]-[6-(5-methyl-pyridin-2-yl)-5,6,7,8-tetrahydro-pyrido[4,3-d]pyrimidin-4-yl]-amine] |
| 212 nM | – | Cc1ccc(N2CCc3ncnc(NC(C)c4ccncc4)c3C2)nc1 (stereo not shown) [Compound 9, [6-(5-Methyl-pyridin-2-yl)-5,6,7,8-tetrahydro-pyrido[4,3-d]pyrimidin-4-yl]-(1-pyridin-4-yl-ethyl)-amine] |
| 33 nM | – | C[C@@H](Nc1ncnc2c1CN(c1ccc(Cl)cn1)CC2)c1ccc(C(F)(F)F)nc1 [Compound 52, [6-(5-Chloro-pyridin-2-yl)-5,6,7,8-tetrahydro-pyrido[4,3-d]pyrimidin-4-yl]-[(R)-1-(6-trifluoromethyl-pyridin-3-yl)-ethyl]-amine] |
| 212 nM | – | Cc1ccc(N2CCc3ncnc(NC(C)c4ccc(Br)cc4)c3C2)nc1 (stereo not shown) [Compound 28, [1-(4-Bromo-phenyl)-ethyl]-[6-(5-methyl-pyridin-2-yl)-5,6,7,8-tetrahydro-pyrido[4,3-d]pyrimidin-4-yl]-amine] |
| > 10000 nM | – | C[C@H](Nc1ncnc2c1CN(c1ccc(Cl)cn1)CC2)c1ccc(C(F)(F)F)nc1 [Compound 51, (S)-6-(5-Chloropyridin-2-yl)-N-(1-(6-(trifluoromethyl)pyridin-3-yl)ethyl)-5,6,7,8-tetrahydropyrido[4,3-d]pyrimidin-4-amine] |
| 415 nM | – | Cc1ccc(N2CCc3ncnc(NC(C)c4ccc(Cl)cc4Cl)c3C2)nc1 (stereo not shown) [Compound 27, [1-(2,4-Dichloro-phenyl)-ethyl]-[6-(5-methyl-pyridin-2-yl)-5,6,7,8-tetrahydro-pyrido[4,3-d]pyrimidin-4-yl]-amine] |
| 603 nM | – | CCc1ccc(C(C)Nc2ncnc3c2CN(c2ccc(C)cn2)CC3)cc1 (stereo not shown) [Compound 13, [1-(4-Ethyl-phenyl)-ethyl]-[6-(5-methyl-pyridin-2-yl)-5,6,7,8-tetrahydro-pyrido[4,3-d]pyrimidin-4-yl]-amine] |
| > 7200 nM | – | Cc1ccc(N2CCc3ncnc(N[C@@H](C)c4ccc(Cl)cc4)c3C2)nc1 [Compound 6, [(S)-1-(4-Chloro-phenyl)-ethyl]-[6-(5-methyl-pyridin-2-yl)-5,6,7,8-tetrahydro-pyrido[4,3-d]pyrimidin-4-yl]-amine] |
| 408 nM | – | CC[C@@H](Nc1ncnc2c1CN(c1ccc(C)cn1)CC2)c1ccccc1 [Compound 42] |
| 181 nM | – | COc1ccc([C@@H](C)Nc2ncnc3c2CN(c2ccc(C)cn2)CC3)cc1 [Compound 43, [(R)-1-(4-Methoxy-phenyl)-ethyl]-[6-(5-methyl-pyridin-2-yl)-5,6,7,8-tetrahydro-pyrido[4,3-d]pyrimidin-4-yl]-amine] |
| > 10000 nM | – | CC[C@H](Nc1ncnc2c1CN(c1ccc(C)cn1)CC2)c1ccccc1 [Compound 45, [6-(5-Methyl-pyridin-2-yl)-5,6,7,8-tetrahydro-pyrido[4,3-d]pyrimidin-4-yl]-((S)-1-phenyl-propyl)-amine] |
| 397 nM | – | CCC(Nc1ncnc2c1CN(c1ccc(C)cn1)CC2)c1ccccc1 (stereo not shown) [Compound 36, [6-(5-Methyl-pyridin-2-yl)-5,6,7,8-tetrahydro-pyrido[4,3-d]pyrimidin-4-yl]-(1-phenyl-propyl)-amine] |
